# Tests used:
# FAAH [1] = molecular target: T1, FAAH (Rattus norvegicus, UniProt P97612); settings: cited from earlier work
# T1 sequence (P97612 1-579): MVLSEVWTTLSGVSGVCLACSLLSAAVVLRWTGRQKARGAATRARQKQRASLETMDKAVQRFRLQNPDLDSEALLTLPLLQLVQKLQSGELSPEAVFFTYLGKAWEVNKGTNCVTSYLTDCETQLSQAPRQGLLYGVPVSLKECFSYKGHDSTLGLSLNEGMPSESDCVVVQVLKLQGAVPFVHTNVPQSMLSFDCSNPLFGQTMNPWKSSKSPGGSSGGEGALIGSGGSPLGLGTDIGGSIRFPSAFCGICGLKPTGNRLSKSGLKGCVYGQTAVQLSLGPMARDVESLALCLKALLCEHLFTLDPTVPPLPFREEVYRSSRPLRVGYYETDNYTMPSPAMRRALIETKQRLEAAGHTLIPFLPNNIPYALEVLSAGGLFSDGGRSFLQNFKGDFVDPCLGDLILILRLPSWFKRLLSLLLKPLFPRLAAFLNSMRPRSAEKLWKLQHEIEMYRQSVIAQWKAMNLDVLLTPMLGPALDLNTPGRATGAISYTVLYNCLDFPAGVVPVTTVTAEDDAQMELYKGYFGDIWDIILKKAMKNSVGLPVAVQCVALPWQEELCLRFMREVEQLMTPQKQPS
# FAAH [2] = molecular target: T1, FAAH; assay: FAAH assay: inhibition of rat brain [3H]AEA hydrolysis; settings: for FAAH inhibitory activity (in words): 0.5 μM [3H]AEA, rat brain homogenates
# Experimental: Frozen (−80 °C) brains (minus cerebella) from adult Wistar or Sprague-Dawley rats were thawed and homogenised in 20 mM HEPES, 1 mM MgCl2, pH 7.0. and thereafter centrifuged at ∼35000 × g for 20 min at 4 °C. Homogenates were washed (by centrifugation at ∼35000 × g for 20 min at 4 °C followed by resuspension in the buffer) twice and incubated at 37 °C for 15 min in order to hydrolyse all endogenous FAAH substrates. After a further centrifugation, pellets were resuspended in 50 mM Tris-HCl buffer, pH 7.4, containing 1 mM EDTA and 3 mM MgCl2, and frozen at −80 °C in aliquots until used for the assay. For the FAAH assay[34] test compounds, homogenates (usually 0.5–0.8 μg protein per assay, diluted with 10 mM Tris-HCl, 1 mM EDTA pH 7.4) and 25 μL of [^3H]AEA in 10 mM Tris- HCl, 1 mM EDTA, pH 7.4, containing 1% w/v fatty acid-free bovine serum albumin, final substrate concentration of 0.5 μM) were incubated for 10 min at 37 °C (final assay volume 200 μL). Reactions were stopped by placing the tubes on ice. Final assay concentrations of the solvents used for the compounds (ethanol or DMSO) were in the range 1–5%. Activated charcoal (80 μL + 320 μL 0.5 M HCl) was added and the samples were mixed and left at room temperature for about 30 min. Following centrifugation at 2500 rpm for 10 min, aliquots (200 μL) of the supernatants were analysed for tritium content by liquid scintillation spectroscopy with quench correction. Blank values were obtained by the use of buffer rather than homogenate.
# In general, FAAH assays upon three homogenates were undertaken using separate inhibitor dilution series (from a stock solution), with 6 concentrations of inhibitor in half-log concentrations (i.e. 1, 3, 10 µM etc) ranging from 0.3–100 µM. Data were expressed as % of vehicle control and analysed using the algorithm log(inhibitor) vs. response – variable slope (four parameters) built into the GraphPad Prism computer programme for the Macintosh (GraphPad Software Inc., San Diego, CA). Two different curve fits were chosen: one where the top (uninhibited) value was set to 100 and the bottom (maximum inhibition) was set to 0, and one where the top was set to 100 and the bottom allowed to float. The best model (when the bottom value returned >0) was chosen by Akaike’s informative criteria. Since the programme uses log10 inhibitor concentrations, the IC50 values for the inhibitable fraction are derived from the corresponding − log10(IC50) (pI50) values. […] In consequence, we report both pI50 and IC50 values to indicate the SE values.
# The inhibition assays were performed using 0.5 μM [^3H]AEA as substrate and rat brain homogenates as the enzyme source.
# [3] = set-up: method as in PMID 12767601; settings: cited from earlier work
structure (smiles),measurement,setting,value
Cc1cccnc1NC(=O)[C@@H](C)c1ccc(CC(C)C)cc1 [(S)-IbuAM5],FAAH inhibitory activity of (S)-enantiomer relative to (R)-enantiomer,FAAH [1],10 fold
"CC(C)Cc1ccc(C(C)C(=O)NCc2ccccc2Cl)cc1 (centres unmarked) [Compound 11, N-(2-Chlorobenzyl)-2–(4-isobutylphenyl)propanamide]",IC50,FAAH [2],4.1 µM
"CC(C)Cc1ccc(C(C)C(=O)NCc2ccc(Cl)cc2Cl)cc1 (centres unmarked) [Compound 14, N-(2,4-Dichlorobenzyl)-2–(4-isobutylphenyl)propanamide]",IC50,FAAH [2],21 µM
"CC(C)Cc1ccc(C(C)C(=O)NCc2cc(Cl)ccc2Cl)cc1 (centres unmarked) [Compound 15, N-(2,5-Dichlorobenzyl)-2–(4-isobutylphenyl)propanamide]",IC50,FAAH [2],4.4 µM
"CC(C)Cc1ccc(C(C)C(=O)NCc2c(Cl)cccc2Cl)cc1 (centres unmarked) [Compound 16, N-(2,6-Dichlorobenzyl)-2–(4-isobutylphenyl)propanamide]",melting point,,130 to 135 °C
same,FAAH inhibitory activity (in words),FAAH [2],complete loss of activity
"CC(C)Cc1ccc(C(C)C(=O)N2CCN(c3ccc(Cl)c(Cl)c3)CC2)cc1 (centres unmarked) [Compound 21, 1–(4-(3,4-Dichlorophenyl)piperazin-1-yl)-2–(4-isobutylphenyl)propan-1-one]",loss of FAAH inhibitory activity relative to amide 19,"FAAH [2]; 3,4-dichlorophenyl versus 3-chlorophenyl analogue",10 fold
"CC(C)Cc1ccc(C(C)C(=O)N2CCN(c3ccc(F)cc3)CC2)cc1 (centres unmarked) [Compound 22, 1–(4-(4-Fluorophenyl)piperazin-1-yl)-2–(4-isobutylphenyl)propan-1-one]",IC50,FAAH [2],17 µM
"Cc1ccccc1N1CCN(C(=O)C(C)c2ccc(CC(C)C)cc2)CC1 (centres unmarked) [Compound 27, 2–(4-Isobutylphenyl)-1–(4-(o-tolyl)piperazin-1-yl)propan-1-one]",FAAH inhibitory activity (in words),FAAH [2],loss of activity
Cc1cccnc1NC(=O)C(C)c1ccc(CC(C)C)cc1 (centres unmarked) [Ibu-AM5],potency as reversible FAAH inhibitor relative to ibuprofen,FAAH [1],two to three orders of magnitude more potent than ibuprofen
same,ulcerogenic potency relative to ibuprofen,[3],much lower ulcerogenic potency than ibuprofen
